Laboratory results as given in publication PMC6216040, “Repurposing of an old drug: In vitro and in vivo efficacies of buparvaquone against Echinococcus multilocularis” (International Journal for Parasitology: Drugs and Drug …, 2018).

Tested on: E. multilocularis metacestodes
Experiment: PGI-assay: drug-induced damage on in vitro cultured metacestodes (Pathogen Box screening cascade and EC50)
Type: cell-based, Echinococcus multilocularis
Settings: for PGI release, % of the Tx-100 control, 5d / PGI release, % of the Tx-100 control, 12d: 10 µM, singlets; for PGI release, % of the Tx-100 control, 5d / PGI release, % of Tx-100 control, average, 5d: 5 days of incubation; for PGI release, % of the Tx-100 control, 12d / PGI release, % of Tx-100 control, average, 12d: 12 days of incubation
[1] = confirmatory screening at 10 µM in triplicates, values as % of Tx-100 control

Compound	PGI release, % of the Tx-100 control, 5d [%]	PGI release, % of the Tx-100 control, 12d [%]	further results
COc1cc(C(F)(F)F)nc2ccc(C)c(N)c12 [MMV047015]	-0.69	-0.79	
N#Cc1ccc(-c2ccc(OCC(N)=O)cc2)cc1 [MMV053220]	-4.06	-1.40	
CC(=O)N1CCc2cc3nc(C)cc(C)c3cc21 [MMV054312]	0.77	-0.65	
Cc1cc(C)nc(-n2nc(C)cc2Nc2ccccc2)n1 [MMV062221]	-5.83	1.28	
Cc1nn(Cc2ccccc2)c(Cl)c1C(=O)NC1CCCCCC1 [MMV063404]	0.0181	0.28	
FC(F)(F)c1nnc2ccc(Cl)nn12 [MMV069458]	-0.54	0.02	
O=C1N(Cc2cc3ccccc3s2)CC2CN(Cc3ccccc3)CCN12 (stereo not drawn) [MMV084603]	-3.64	0.62	
O=C(Nc1cnc2ccccc2c1)c1cccc(-n2cnnn2)c1 [MMV084864]	-2.18	-3.92	
COc1cncc(-c2cncc(N3CCN(c4ccncc4)CC3)n2)c1 [MMV085071]	0.27	0.48	
O=C(C(Cc1c[nH]c2ccccc12)NS(=O)(=O)c1ccc(Cl)cc1)N1CCCCC1 (stereo not drawn) [MMV085210]	-0.40	0.0121	
CCCNC(=O)N1CCC2(CC1)CC(=O)c1cc(C)ccc1O2 [MMV085230]	-0.40	-0.0743	
N#Cc1ccc(-c2cnc(N)c(-c3ccc(C(N)=O)cc3)n2)cc1 [MMV085499]	7.58	0.90	
CCOC(=O)NC(=O)c1ccsc1NC(=O)c1nc2ccccc2s1 [MMV090930]	11.85	28.09	PGI release, % of Tx-100 control, average, 5d (1 µM, triplicates): 2.46%; PGI release, % of Tx-100 control, average, 12d (1 µM, triplicates): 6.26%; activity in the screen at 10 μM (confirmed in triplicates, >20% relative PGI release) (10 μM, 5 and 12 days): active; PGI release, % of Tx-100 control, average, 5d [1]: 13.69%; PGI release, % of Tx-100 control, average, 12d [1]: 46.13%
O=C(Nc1nnc(-c2ccc(Cl)cc2)o1)c1cccc(C(F)(F)F)c1 [MMV102872]	32.35	28.26	PGI release, % of Tx-100 control, average, 5d [1]: -0.31%; PGI release, % of Tx-100 control, average, 12d [1]: -1.19%
CCC(C)NC(=O)c1ccc(NC(=O)C2(c3ccccc3)CCCC2)cc1 (stereo not drawn) [MMV146306]	-1.42	-5.77	
CCOC(=O)c1c(NC(=O)c2c(F)c(F)c(F)c(F)c2F)sc(C(N)=O)c1C [MMV153413]	1.93	9.70	
Cc1cc(Cl)ccc1NC(=O)CCc1ccc(S(=O)(=O)NCC(C)C)cc1 [MMV161996]	-0.05	0.10	
CNC(=O)C1Cc2ccccc2N1C(=O)Cc1ccc(F)cc1 (stereo not drawn) [MMV188296]	-0.45	-0.28	
COc1ccc(C2(C(=O)Nc3ccc(Br)cc3)CCCC2)cc1 [MMV200748]	-1.03	-1.33	
COc1ccc(OC(C)C(=O)Nc2ccc(Cl)cc2C)cc1 (stereo not drawn) [MMV202458]	0.0146	6.22	

Compound	PGI release, % of the Tx-100 control, 5d [%]	PGI release, % of the Tx-100 control, 12d [%]	further results
CCC(=O)Nc1ccccc1C(=O)Nc1ccccn1 [MMV202553]	-0.91	0.26	
COc1cccc(NC(=O)c2c(NC(=O)c3cccnc3)sc3c2CCC3)c1 [MMV228911]	6.25	18.91	
COc1cccc(-n2nnnc2S(C)(=O)=O)c1 [MMV272144]	-0.69	0.11	
COc1cccc(-c2cc3c(Nc4cccnc4)nccc3[nH]2)c1 [MMV392832]	0.24	-1.65	
CN1CCN(c2nccc3[nH]c(-c4cccc(F)c4)cc23)CC1 [MMV393144]	-0.30	0.40	
Cc1cc(=O)[nH]c(-n2nc(C)cc2C)n1 [MMV393995]	-1.49	-4.16	
CCc1nc2ccc(C(=O)NCc3ccc4c(c3)OCO4)cn2c1N(C)Cc1cccs1 [MMV407539]	-0.20	24.66	PGI release, % of Tx-100 control, average, 5d [1]: -1.01%; PGI release, % of Tx-100 control, average, 12d [1]: 3.14%
CCOc1ccccc1NC(C)C(=O)Nc1cc(C(F)(F)F)ccc1N1CCOCC1 (stereo not drawn) [MMV407834]	-0.40	-0.68	
COC(=O)c1c(NC(=O)c2c(F)c(F)c(F)c(F)c2F)sc2c1CCCCC2 [MMV461553]	3.92	19.16	
CC(C)(C)c1cnc(NC(=O)c2ccccc2O)s1 [MMV495543]	-1.40	-5.38	
CS(=O)(=O)Cc1nc2ccccc2oc1=O [MMV553002]	-3.93	-1.57	
c1ccc(-c2cc(N3CCCCC3)c3ccccc3n2)nc1 [MMV560185]	0.52	-0.29	
CCN(CC)S(=O)(=O)c1ccc(C(=O)Nc2cc(C)nn2-c2nc(C)c(C)c(=O)[nH]2)cc1 [MMV595321]	-0.14	-1.13	
CCC(Sc1nc2ccccc2o1)C(=O)Nc1nnc(C)s1 (stereo not drawn) [MMV611037]	-0.81	-1.11	
O=C(NCCN1CCCC1)c1cc(NCCN2CCOCC2)nc2ccc(Cl)cc12 [MMV634140]	0.01	-0.0759	
CN1CCCC1CCO[C@](C)(c1ccccc1)c1ccc(Cl)cc1 (stereo partly drawn) [MMV637229]	4.53	10.67	
O=C(Nc1ccc2c(c1)B(O)OC2)c1ccccc1C(F)(F)F [MMV652003]	1.72	7.32	
Cc1nc(-c2ccccn2)nc(N(C)CCc2ccccc2)c1Cl [MMV658988]	22.86	30.08	PGI release, % of Tx-100 control, average, 5d [1]: 4.97%; PGI release, % of Tx-100 control, average, 12d [1]: 10.18%
Cc1nc(-c2ccccn2)nc(NCCc2ccc(S(C)(=O)=O)cc2)c1Cl [MMV658993]	-0.19	1.18	
Cc1nc(-c2ccccn2)nc(N2CCC(Cc3ccccc3)C2)c1Cl (stereo not drawn) [MMV659004]	11.75	58.47	PGI release, % of Tx-100 control, average, 5d [1]: 2.44%; PGI release, % of Tx-100 control, average, 12d [1]: 11.08%
